Here are results for 50 molecules from ChEMBL document CHEMBL4270538, “Targeting prohibitin with small molecules to promote melanogenesis and apoptosis in melanoma cells” (Eur J Med Chem, 2018).

Calls of active or inactive are those of the source. The calls are words filed in the database; no cut-off is given here.

The target in experiment [1] is Prohibitin-2 (Homo sapiens) (UniProt Q99623). The experiment is described as follows: Induction of PHB2-mediated melanogenesis in human HBL cells assessed as pigmentation at 10 uM after 10 days relative to control. The format is cell-based.
Experiment [2] has the same target. The experiment is described as follows: Induction of PHB2-mediated melanogenesis in human HBL cells assessed as pigmentation at 1 uM after 10 days relative to control. In kind it is cell-based.
Experiment [3] is filed under the species Homo sapiens. In words: Induction of apoptosis in human MM162 cells at 1 to 10 uM after 48 hrs by Annexin V-PE/7-AAD staining based flow cytometry. In kind it is functional, cell-based. Background: A flow cytometer gives signals particle by particle.
Experiment [4] is filed under the species Homo sapiens. The experiment is described as follows: Induction of apoptosis in human MM043 cells at 1 to 10 uM after 48 hrs by Annexin V-PE/7-AAD staining based flow cytometry. In kind it is functional, cell-based.
For experiment [5], the system named is HBL. The experiment is described as follows: Induction of apoptosis in human HBL cells at 1 to 10 uM after 48 hrs by Annexin V-PE/7-AAD staining based flow cytometry. In kind it is functional, cell-based.

Prohibitin-2 (Homo sapiens), sequence (Q99623 whole entry): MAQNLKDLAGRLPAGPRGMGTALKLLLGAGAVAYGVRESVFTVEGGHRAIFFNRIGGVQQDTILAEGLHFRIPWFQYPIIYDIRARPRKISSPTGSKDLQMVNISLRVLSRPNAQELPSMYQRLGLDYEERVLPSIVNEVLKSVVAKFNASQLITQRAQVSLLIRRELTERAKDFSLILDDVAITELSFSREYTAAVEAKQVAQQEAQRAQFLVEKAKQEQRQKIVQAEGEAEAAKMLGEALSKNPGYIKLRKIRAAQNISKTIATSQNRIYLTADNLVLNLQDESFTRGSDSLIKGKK

As for `CC[C@H](CO)Nc1nc(Oc2c(F)c(F)c(F)c(F)c2F)nc(N2CCCc3ccccc3C2)n1`, the fold change (FC) in experiment [1] was 0.74; in experiment [2], 0.85.
For `COCCNc1nc(NCc2cccc(F)c2)nc(Oc2c(F)c(F)c(F)c(F)c2F)n1` the same measures were 0.76 and 0.8.
For the molecule `Fc1cccc(CNc2nc(NCCCCc3ccccc3)nc(Oc3c(F)c(F)c(F)c(F)c3F)n2)c1`, the fold change (FC) in experiment [1] is 1; in experiment [2] it was 0.9.
Turning to `CNc1nc(NCc2cccc(F)c2)nc(Oc2c(F)c(F)c(F)c(F)c2F)n1`, the fold change (FC) in experiment [1] was determined as 0.84; in experiment [2], 0.89.
For `CCC(Nc1nc(N[C@H](CC)CO)nc(Oc2c(F)c(F)c(F)c(F)c2F)n1)c1cccc(F)c1` (stereo partly drawn) the same measures were 0.74 and 0.95.
Taken in the same sequence, the figures for `Fc1cccc(CNc2nc(Oc3c(F)c(F)c(F)c(F)c3F)nc(N3CCOCC3)n2)c1` were 0.93 and 0.85.
`CCN(Cc1ccccc1)c1nc(NCCN(C)C)nc(Oc2c(F)c(F)c(F)c(F)c2F)n1`: the fold change (FC) in experiment [1] came to 1.43; in experiment [2] it was 1.11.
For `CC[C@H](CO)Nc1nc(N[C@H](C)c2ccccc2)nc(Oc2c(F)c(F)c(F)c(F)c2F)n1` the same measures were 0.83 and 0.94.
With `Fc1cccc(CNc2nc(NCc3ccccn3)nc(Oc3c(F)c(F)c(F)c(F)c3F)n2)c1`, the fold change (FC) was determined as 1.01 in experiment [1] and 1.02 in experiment [2].
For `Fc1cccc(CNc2nc(NCc3ccncc3)nc(Oc3c(F)c(F)c(F)c(F)c3F)n2)c1` the same measures were 0.76 and 0.77.
Taken in the same sequence, the figures for `CN(C)CCNc1nc(Oc2c(F)c(F)c(F)c(F)c2F)nc(N(C)Cc2cccc(F)c2)n1` were 1.97 and 1.15.
For `FC1(F)N=C(c2ccc(Cl)cc2)SC1(F)c1ccc(Cl)cc1` (stereo not drawn) the same measures were 1.37 and 1.51.
On to `CC[C@H](CO)Nc1nc(Oc2c(F)c(F)c(F)c(F)c2F)nc(N(C)Cc2cccc(F)c2)n1`, for which the values for the fold change (FC) in experiment [1] and in experiment [2] were 0.81 and 0.77, respectively.
Taken in the same sequence, the figures for `Fc1cccc(CNc2nc(NCc3ccccc3)nc(Oc3c(F)c(F)c(F)c(F)c3F)n2)c1` were 1.1 and 0.89.
Take `Fc1cccc(CNc2nc(NCc3cccnc3)nc(Oc3c(F)c(F)c(F)c(F)c3F)n2)c1`: the fold change (FC) in experiment [1] stood at 0.94; in experiment [2] it was 0.92.
Taken in the same sequence, the figures for `CN(C)CCCNc1nc(Oc2c(F)c(F)c(F)c(F)c2F)nc(N2CCCc3ccccc3C2)n1` were 1.57 and 0.96.
For `CC[C@@H](CO)Nc1nc(NCc2cccc(F)c2)nc(Oc2c(F)c(F)c(F)c(F)c2F)n1` the same measures were 0.61 and 0.8.
For `CN(C)CCNc1nc(NCc2cccc(F)c2)nc(Oc2c(F)c(F)c(F)c(F)c2F)n1`, the fold change (FC) in experiment [1] is 0.59; in experiment [2], 0.98.
Taken in the same sequence, the figures for `CNc1nc(Oc2c(F)c(F)c(F)c(F)c2F)nc(N2Cc3ccccc3C2)n1` were 0.98 and 0.93.
For `CN1CCN(c2nc(NCc3cccc(F)c3)nc(Oc3c(F)c(F)c(F)c(F)c3F)n2)CC1` the same measures were 0.65 and 0.78.
In the case of `CNc1nc(Oc2c(F)c(F)c(F)c(F)c2F)nc(N(C)[C@H](C)c2ccccc2)n1`, the fold change (FC) is 0.94 in experiment [1] and 0.88 in experiment [2].
For `CNc1nc(Oc2c(F)c(F)c(F)c(F)c2F)nc(N2CCc3ccccc3C2)n1` the same measures were 0.87 and 0.84.
On to `CN(C)CCNc1nc(Oc2c(F)c(F)c(F)c(F)c2F)nc(N(C)Cc2ccccc2)n1`, for which the fold change (FC) was 0.99 in experiment [1] and 0.98 in experiment [2].
Turning to `CNc1nc(Oc2c(F)c(F)c(F)c(F)c2F)nc(N2CCCc3ccccc3C2)n1`, the fold change (FC) in experiment [1] worked out at 0.86; in experiment [2] it was 0.8.
In the case of `C[C@@H](c1ccccc1)N(C)c1nc(NCCN(C)C)nc(Oc2c(F)c(F)c(F)c(F)c2F)n1`, the fold change (FC) was determined as 0.71 in experiment [1] and 0.94 in experiment [2].
Taken in the same sequence, the figures for `CN(C)c1nc(NCc2cccc(F)c2)nc(Oc2c(F)c(F)c(F)c(F)c2F)n1` were 1.05 and 1.04.
Turning to `CN(C)C1CCN(c2nc(Oc3c(F)c(F)c(F)c(F)c3F)nc(N3CCCc4ccccc4C3)n2)CC1`, the fold change (FC) turned out to be 1.51 in experiment [1] and 0.83 in experiment [2]. Further, the outcome in experiment [3], in experiment [4] and in experiment [5] was Active.
Turning to `Nc1nc(NCc2cccc(F)c2)nc(Oc2c(F)c(F)c(F)c(F)c2F)n1`, the fold change (FC) is 0.91 in experiment [1] and 0.92 in experiment [2].
For `CNc1nc(N[C@H](C)c2ccccc2)nc(Oc2c(F)c(F)c(F)c(F)c2F)n1` the same measures were 0.89 and 1.16.
For `CC(=O)NCCNc1nc(NCc2cccc(F)c2)nc(Oc2c(F)c(F)c(F)c(F)c2F)n1` the same measures were 1 and 0.91.
For `C[C@H](c1ccccc1)N(C)c1nc(NCCN(C)C)nc(Oc2c(F)c(F)c(F)c(F)c2F)n1` the same measures were 1.53 and 1.25.
On to `Fc1cccc(CNc2nc(NCCCc3ccccc3)nc(Oc3c(F)c(F)c(F)c(F)c3F)n2)c1`, for which the fold change (FC) in experiment [1] and in experiment [2] was 1.07 in each case.
With `Fc1cccc(CNc2nc(NCCc3cc4ccccc4[nH]3)nc(Oc3c(F)c(F)c(F)c(F)c3F)n2)c1`, the fold change (FC) is 1.25 in experiment [1] and 1.09 in experiment [2].
For `Fc1cccc(CNc2nc(NCCc3ccccc3)nc(Oc3c(F)c(F)c(F)c(F)c3F)n2)c1` the same measures were 1.11 and 0.9.
For `OCC1CCN(c2nc(NCc3cccc(F)c3)nc(Oc3c(F)c(F)c(F)c(F)c3F)n2)CC1`, the results for the fold change (FC) in experiment [1] and in experiment [2] were 0.84 and 0.89, respectively.
As for `CCC(Nc1nc(NCCN(C)C)nc(Oc2c(F)c(F)c(F)c(F)c2F)n1)c1cccc(F)c1` (stereo not drawn), the fold change (FC) in experiment [1] was 0.55; in experiment [2], 0.86.
For `Fc1cccc(CNc2nc(NCC3CCCO3)nc(Oc3c(F)c(F)c(F)c(F)c3F)n2)c1` (stereo not drawn) the same measures were 0.95 and 1.07.
Taken in the same sequence, the figures for `CC[C@H](CO)Nc1nc(Oc2c(F)c(F)c(F)c(F)c2F)nc(N(C)[C@@H](C)c2ccccc2)n1` were 0.89 and 0.96.
For `CNc1nc(NCc2ccccc2)nc(Oc2c(F)c(F)c(F)c(F)c2F)n1`, the fold change (FC) in experiment [1] was 0.69; in experiment [2], 0.9.
Turning to `CNc1nc(NC(C)c2cccc(F)c2)nc(Oc2c(F)c(F)c(F)c(F)c2F)n1` (stereo not drawn), the fold change (FC) in experiment [1] amounted to 0.84; in experiment [2], 1.01.
Taken in the same sequence, the figures for `Fc1cccc(CNc2nc(Oc3c(F)c(F)c(F)c(F)c3F)nc(N3CCCC3)n2)c1` were 1.08 and 0.99.
For `CC(C)CCNc1nc(NCc2cccc(F)c2)nc(Oc2c(F)c(F)c(F)c(F)c2F)n1` the same measures were 0.89 and 0.7.
Taken in the same sequence, the figures for `CC[C@H](CO)Nc1nc(NC(C)c2cccc(F)c2)nc(Oc2c(F)c(F)c(F)c(F)c2F)n1` (stereo partly drawn) were 0.68 and 0.78.
As to `CNc1nc(Oc2c(F)c(F)c(F)c(F)c2F)nc(N(C)Cc2cccc(F)c2)n1`, the fold change (FC) in experiment [1] came out at 0.78; in experiment [2] it was 0.84.
As for `CC(Nc1nc(NCCN(C)C)nc(Oc2c(F)c(F)c(F)c(F)c2F)n1)c1cccc(F)c1` (stereo not drawn), the fold change (FC) was determined as 0.43 in experiment [1] and 0.77 in experiment [2].
Taken in the same sequence, the figures for `C[C@@H](Nc1nc(NCCN(C)C)nc(Oc2c(F)c(F)c(F)c(F)c2F)n1)c1ccccc1` were 0.61 and 0.78.
For `O=C1CCCN1CCCNc1nc(NCc2cccc(F)c2)nc(Oc2c(F)c(F)c(F)c(F)c2F)n1` the same measures were 1.04 and 0.99.
Turning to `Fc1cccc(CNc2nc(NCCNc3ccccn3)nc(Oc3c(F)c(F)c(F)c(F)c3F)n2)c1`, the fold change (FC) turned out to be 1.09 in experiment [1] and 0.97 in experiment [2].
Taken in the same sequence, the figures for `CNc1nc(Oc2c(F)c(F)c(F)c(F)c2F)nc(N(C)[C@@H](C)c2ccccc2)n1` were 0.86 and 1.01.
For `CCC(CO)Nc1nc(NCc2cccc(F)c2)nc(Oc2c(F)c(F)c(F)c(F)c2F)n1` (stereo not drawn) the same measures were 1.39 and 1.06.
